# Legend:
# [1] = tested on: rats of the dry yeast fever model; assay: Common fever model of rats induced by dry yeast; assay type: in vivo; conditions: 30 mg/kg intragastric
# Description: Male SD rats, with a weight of 220-260 g, were fed adaptively for 3 days, ate food and drank water freely with 12 hours of day-night circle. […] Each group was administrated with the drug based on 1 ml/100 g body weight by intragastric administration. […] Operating steps: except that the LPS in Experiment 1 was replaced by the dry yeast, other experimental operating steps and dosage selections were the same as those in Experiment 1.
# [2] = tested on: rats of the LPS fever model; assay: LPS-induced common fever model in rats; assay type: in vivo, Sprague Dawley rats; conditions: 30 mg/kg intragastric
# Description: Male healthy Sprague Dawley rats (SPF), with a weight of 220-260 g, purchased from Liaoning Changsheng Biotechnology Co., Ltd., with a license number of SCXK (Liao) 2015-0001. […] Sodium chloride injection ([…], 500 mL): (Shijiazhuang No.4 Pharmaceutical Co., Ltd), Batch number: 101217406; 0.9% sodium chloride injection was dissolved and diluted to 1 mg/ml, then packed in EP tubes and stored at −80 DEG C. for later use; immediately before use, it was diluted with 0.9% sodium chloride injection into a sterile injection of 10 μg /ml(100 μg /kg). Male SD rats, with a weight of 220-260 g, were fed adaptively for 3 days, ate food and drank water freely with 12 hours of day-night circle. […] Each group was administrated with the drug based on 1 ml/100 g body weight by intragastric administration.
# [3] = tested on: rats with tibial cancer pain; assay: van Frey mechanical pain threshold in rats with tibial cancer pain (Walker256); assay type: in vivo, rat
# Description: Walker rat breast cancer cells were purchased from Shanghai Institute of Biomedical Engineering. The abdominal cavity of female Wistar rats of 70-80 g was inoculated with 1 ml of ascites tumor (about 2×10^7 cells /ml). After 7-10 days, 5 ml of ascites was extracted and centrifuged for 3 minutes (1300 rpm). After precipitation, washing was performed with 10 ml PBS, and then centrifuged and precipitated again. Then, resuspending was performed with PBS, counting was performed, the cell concentration was adjusted to 1×10^7 cells/ml by PBS and placed in an ice box for later use.
# Rats were anesthetized by intraperitoneal injection of 10% chlorate hydrate (4 ml/kg body weight), a skin was prepared at the right knee joint, and the skin was disinfected with 75% alcohol. The knee joint was fixed with the left hand to make the skin on its surface tense. A hole with a depth about 1 cm was drilled along the longitudinal axis of tibia at the medial edge of patellar ligament of the knee joint with a 7# needle. Then, a microsampler with tumor cells (before injection, 1 μl of air, 2 μl of gelatin sponge aqueous solution, 1 μl of air, 4 μl of tumor cells or PBS were inhaled in turn) was used, and 4 μl of tumor cells was injected into the tibia bone marrow cavity; The rats in the control group were injected with the same amount of PBS, and finally all of them were sealed with 2 μl of gel sponge solution. After injection, the needles were kept for 1 minute to prevent the injection from oozing out.
# Rats were divided into two groups: a PBS injection control group and a Walker256 model group. The radiation paw withdrawal latency (PWL) was measured before modeling as the basic pain threshold, and the PWL was measured every other day after modeling as the thermal hyperalgesia threshold. At the same time, the mechanical pain caused by von Frey filament was measured. The threshold of mechanical pain was measured before modeling as the basic pain threshold, and the threshold of mechanical allodynia was measured every other day after modeling.
# After successfully establishing the model of tibia cancer pain, continuous intragastric administration was performed for 12 days. The rats in the model group were intragastrically given the same volume of normal saline.
# mice [4] = assay: Analgesic experiment of writhing method in mice (acetic acid); assay type: in vivo, Kunming mice; conditions: 15 mg/kg once on the day of the experiment
# mice [5] = assay: Analgesia experiment on a hot plate in mice; assay type: in vivo, Kunming mice; conditions: 15 mg/kg
# Excerpt: The mouse hot plate method is a classic method for screening analgesics. Its principle is to put the mouse on a hot plate heated to a constant temperature of (55±0.1 DEG C.) in advance, and when the foot of the mouse is stimulated by the hot plate to produce pain, the time required for foot licking is taken as the pain threshold, which is taken as the observation index, and the changes of threshold before and after medication are compared to evaluate the analgesic effect.
# Before the experiment, the mice in each group were given intragastric administration. The mice in the blank control group were given the same volume of normal saline every day for 3 consecutive days.
# The mice were put on a hot plate pain meter heated to 55 DEG C. in advance, and the time from putting into the hot plate to licking hind feet was recorded with a stopwatch as the pain threshold of the mice. […] It was measured once at 30, 60, 90 and 120 min after administration. After the end of the experiment, the percentage of pain threshold increase was calculated according to the measured average value of pain threshold. The percentage of pain threshold increase %=(an average pain threshold after administration−an average pain threshold before administration)÷the average pain threshold before administration×100%.
# [6] = literature reports; cited from earlier work
# [7] = 15 mg/kg on the last day, same side
compound,measurement,setting,value
"CC(C)Cc1ccc(C(C)C(=O)O)cc1 (centres unmarked) [ibuprofen, Ibuprofen]",after administration ΔT,[1]; 1 h,0.26 ± 0.26 °C
same,after administration ΔT,[1]; 2 h,0.40 ± 0.31 °C
same,after administration ΔT,[1]; 4 h,0.54 ± 0.38 °C
same,after administration ΔT,[2]; 1 h,0.27 ± 0.27 °C
same,after administration ΔT,[2]; 2 h,0.33 ± 0.43 °C
same,after administration ΔT,[2]; 4 h,0.34 ± 0.38 °C
same,after administration ΔT,[2]; 6 h,1.23 ± 0.24 °C
same,after administration ΔT,[2]; 8 h,1.32 ± 0.24 °C
same,after administration ΔT,[2]; 10 h,1.23 ± 0.39 °C
"CN1CC[C@]23c4c5ccc(O)c4O[C@H]2[C@@H](O)C=C[C@H]3[C@H]1C5.Cl [positive control, morphine hydrochloride]","analgesic rate, opposite side",[3]; 15 mg/kg on the last day,133.3%
same,"van Frey mechanical pain threshold, opposite side",[3]; 15 mg/kg on the last day,6.3 ± 0.5 g
same,"analgesic rate, same side",[3]; [7],205.5%
same,"van Frey mechanical pain threshold, same side",[3]; [7],5.5 ± 0.2 g
same,"analgesic rate, opposite side","[3]; 80 mg/kg intragastric, 12 days",125.9%
same,"van Frey mechanical pain threshold, opposite side","[3]; 80 mg/kg intragastric, 12 days",6.1 ± 0.2 g
same,"van Frey mechanical pain threshold, same side","[3]; 80 mg/kg intragastric, 12 days, same side",5.2 ± 0.6 g
same,analgesic rate,mice [4],45.83%
same,times of writhing,mice [4],30.17 ± 6.14 n
same,Percentage of pain threshold increase,mice [5]; 30 min,68.11%
same,Percentage of pain threshold increase,mice [5]; 60 min,54.01%
same,Percentage of pain threshold increase,mice [5]; 90 min,51.90%
same,Percentage of pain threshold increase,mice [5]; 120 min,38.17%
spiramycin,absolute oral bioavailability,[6],30-40%

# — US20210177881A1, “MEDICAMENT FOR PREVENTING AND/OR TREATING PAIN AND/OR FEVER, COMPOSITE PRODUCT AND USE THEREOF” (SHANGHAI TONGLIAN PHARMACEUTICAL CO., LTD., priority 2018, published 2021)
